Measured values: patent publication US20230398130A1, “METHODS AND COMPOSITIONS FOR DIFFERENTIATING STEM CELLS” (Massachusetts Institute of Technology, priority 2020, published 2023)

Tests used:
[1] = tested on: ISC-enriched organoids; assay: Primary screen, 384-well 2.5-D organoid differentiation (ENR+CD, 6 days): basal lysozyme secretion (LYZ.NS); type: cell-based, murine; conditions: for Dose.FC.LYZ.NS (log 2 fold change, basal lysozyme secretion): vs plate median; for Dose.FC.LYZ.NS / Z.LYZ.NS / SSMD.LYZ.NS: primary screen; for Dose.FC.LYZ.NS: FC vs plate median; for SSMD.LYZ.NS: strictly standardized mean difference
From the text: (§1) High-throughput screening.

[2] = tested on: ISC-enriched organoids; assay: Primary screen, 384-well 2.5-D organoid differentiation (ENR+CD, 6 days): carbachol-induced lysozyme secretion (LYZ.S); type: cell-based, murine; conditions: for Dose.FC.LYZ.S (log 2 fold change, carbachol-induced lysozyme secretion): vs plate median; for Dose.FC.LYZ.S / Z.LYZ.S / SSMD.LYZ.S: primary screen; for Dose.FC.LYZ.S: FC vs plate median; for Z.LYZ.S: standard z score; for SSMD.LYZ.S: strictly standardized mean difference
From the text: as §1

[3] = tested on: ISC-enriched organoids; assay: Primary screen, 384-well 2.5-D organoid differentiation (ENR+CD, 6 days, Target Selective Inhibitor Library, vs whole-plate median): ATP (CellTiter-Glo 3D, CTG); conditions: for Dose.FC.CTG (log 2 fold change, ATP): vs plate median; for Dose.FC.CTG / Z.CTG / SSMD.CTG: primary screen; for Dose.FC.CTG: FC vs plate median; for SSMD.CTG: strictly standardized mean difference
[4] = Dose 10.00 uM, standard z score
[5] = dose 0.08 uM, standard z score of FC
[6] = dose 0.40 uM, standard z score of FC
[7] = dose 2.00 uM, standard z score of FC
[8] = dose 10.00 uM, standard z score of FC
[9] = 1st of the 4 dose lines of the treatment (dose not given)
[10] = 2nd of the 4 dose lines of the treatment (dose not given)
[11] = 3rd of the 4 dose lines of the treatment (dose not given)
[12] = 4th of the 4 dose lines of the treatment (dose not given)

## Cl.Cl.Cl.O[C@@H](COc1cccc2ncccc12)CN1CCN([C@@H]2c3ccccc3[C@@H]3[C@H](c4ccccc42)C3(F)F)CC1 [Zosuquidar (LY335979) 3HCl]
[1]; dose 0.08 uM
  Z.LYZ.NS (standard z score): 0.839
  Dose.FC.LYZ.NS (log 2 fold change, basal lysozyme secretion): 0.096
[1]; dose 0.40 uM
  Z.LYZ.NS (standard z score): 0.696
  Dose.FC.LYZ.NS (log 2 fold change, basal lysozyme secretion): 0.080
[1]; dose 2.00 uM
  Z.LYZ.NS (standard z score): 1.802
  Dose.FC.LYZ.NS (log 2 fold change, basal lysozyme secretion): 0.207
[1]; dose 10.00 uM
  Z.LYZ.NS (standard z score): −1.821
  Dose.FC.LYZ.NS (log 2 fold change, basal lysozyme secretion): −0.209
[2]; dose 0.08 uM
  Dose.FC.LYZ.S (log 2 fold change, carbachol-induced lysozyme secretion): 0.124
[2]; dose 0.40 uM
  Dose.FC.LYZ.S (log 2 fold change, carbachol-induced lysozyme secretion): 0.127
[2]; dose 2.00 uM
  Dose.FC.LYZ.S (log 2 fold change, carbachol-induced lysozyme secretion): 0.129
[2]; dose 10.00 uM
  Dose.FC.LYZ.S (log 2 fold change, carbachol-induced lysozyme secretion): −0.200
[3]; dose 0.08 uM
  Z.CTG (standard z score): 0.041
  Dose.FC.CTG (log 2 fold change, ATP): 0.017
[3]; dose 0.40 uM
  Z.CTG (standard z score): 0.470
  Dose.FC.CTG (log 2 fold change, ATP): 0.197
[3]; dose 2.00 uM
  Z.CTG (standard z score): 0.659
  Dose.FC.CTG (log 2 fold change, ATP): 0.276
[3]; dose 10.00 uM
  Z.CTG (standard z score): −0.461
  Dose.FC.CTG (log 2 fold change, ATP): −0.193

## Fc1cc(F)c2c(c1)[C@H]1C=CC[C@H]1C(c1cccnc1)N2 (mixture of isomers) [Golgicide A]
[1]; Dose 0.08 uM
  Dose.FC.LYZ.NS: 0.267 log 2 fold change
[1]; Dose 0.08 uM, standard z score
  Z.LYZ.NS: 2.325
[1]; Dose 0.40 uM
  Dose.FC.LYZ.NS: 0.066 log 2 fold change
[1]; Dose 0.40 uM, standard z score
  Z.LYZ.NS: 0.576
[1]; Dose 2.00 uM
  Dose.FC.LYZ.NS: 0.171 log 2 fold change
[1]; Dose 2.00 uM, standard z score
  Z.LYZ.NS: 1.492
[1]; Dose 10.00 uM
  Dose.FC.LYZ.NS: −0.161 log 2 fold change
[1]; [4]
  Z.LYZ.NS: −1.402
[2]; Dose 0.08 uM
  Dose.FC.LYZ.S: 0.146 log 2 fold change
[2]; Dose 0.40 uM
  Dose.FC.LYZ.S: 0.202 log 2 fold change
[2]; Dose 2.00 uM
  Dose.FC.LYZ.S: 0.076 log 2 fold change
[2]; Dose 10.00 uM
  Dose.FC.LYZ.S: −0.256 log 2 fold change
[3]; Dose 0.08 uM
  Dose.FC.CTG: 0.167 log 2 fold change
[3]; Dose 0.08 uM, standard z score
  Z.CTG: 0.398
[3]; Dose 0.40 uM
  Dose.FC.CTG: 0.227 log 2 fold change
[3]; Dose 0.40 uM, standard z score
  Z.CTG: 0.541
[3]; Dose 2.00 uM
  Dose.FC.CTG: 0.339 log 2 fold change
[3]; Dose 2.00 uM, standard z score
  Z.CTG: 0.810
[3]; Dose 10.00 uM
  Dose.FC.CTG: −0.220 log 2 fold change
[3]; [4]
  Z.CTG: −0.526

## COc1cc(F)c(C(C)C)cc1-c1ccc(C(F)(F)F)cc1CN1C(=O)O[C@H](c2cc(C(F)(F)F)cc(C(F)(F)F)c2)[C@@H]1C [Anacetrapib (MK-0859)]
[1]; dose 0.08 uM, ENR+CD 6 days
  Dose.FC.LYZ.NS: 0.013 log 2 fold change
[1]; [5]
  Z.LYZ.NS: 0.112
[1]; dose 0.40 uM, ENR+CD 6 days
  Dose.FC.LYZ.NS: 0.007 log 2 fold change
[1]; [6]
  Z.LYZ.NS: 0.060
[1]; dose 2.00 uM, ENR+CD 6 days
  Dose.FC.LYZ.NS: −0.015 log 2 fold change
[1]; [7]
  Z.LYZ.NS: −0.129
[1]; dose 10.00 uM, ENR+CD 6 days
  Dose.FC.LYZ.NS: −0.036 log 2 fold change
[1]; [8]
  Z.LYZ.NS: −0.314
[2]; dose 0.08 uM, ENR+CD 6 days
  Dose.FC.LYZ.S: 0.051 log 2 fold change
[2]; dose 0.40 uM, ENR+CD 6 days
  Dose.FC.LYZ.S: −0.002 log 2 fold change
[2]; dose 2.00 uM, ENR+CD 6 days
  Dose.FC.LYZ.S: −0.046 log 2 fold change
[2]; dose 10.00 uM, ENR+CD 6 days
  Dose.FC.LYZ.S: −0.036 log 2 fold change
[3]; dose 0.08 uM, ENR+CD 6 days
  Dose.FC.CTG: −0.090 log 2 fold change
[3]; [5]
  Z.CTG: −0.214
[3]; dose 0.40 uM, ENR+CD 6 days
  Dose.FC.CTG: 0.035 log 2 fold change
[3]; [6]
  Z.CTG: 0.084
[3]; dose 2.00 uM, ENR+CD 6 days
  Dose.FC.CTG: −0.094 log 2 fold change
[3]; [7]
  Z.CTG: −0.225
[3]; dose 10.00 uM, ENR+CD 6 days
  Dose.FC.CTG: 0.031 log 2 fold change
[3]; [8]
  Z.CTG: 0.075

## I-BET151 (GSK1210151A)
[1]; Dose 0.08 uM
  Dose.FC.LYZ.NS: −0.116 log 2 fold change
[1]; Dose 0.08 uM, standard z score
  Z.LYZ.NS: −1.010
[1]; Dose 0.40 uM
  Dose.FC.LYZ.NS: −0.248 log 2 fold change
[1]; Dose 0.40 uM, standard z score
  Z.LYZ.NS: −2.159
[1]; Dose 2.00 uM
  Dose.FC.LYZ.NS: −0.299 log 2 fold change
[1]; Dose 2.00 uM, standard z score
  Z.LYZ.NS: −2.601
[1]; Dose 10.00 uM
  Dose.FC.LYZ.NS: −0.284 log 2 fold change
[1]; [4]
  Z.LYZ.NS: −2.473
[1]; [9]
  SSMD.LYZ.NS: −0.856
[1]; [10]
  SSMD.LYZ.NS: −1.677
[1]; [11]
  SSMD.LYZ.NS: −1.629
[1]; [12]
  SSMD.LYZ.NS: −1.342
[2]; Dose 0.08 uM
  Dose.FC.LYZ.S: −0.242 log 2 fold change
[2]; Dose 0.40 uM
  Dose.FC.LYZ.S: −0.344 log 2 fold change
[2]; Dose 2.00 uM
  Dose.FC.LYZ.S: −0.416 log 2 fold change
[2]; Dose 10.00 uM
  Dose.FC.LYZ.S: −0.408 log 2 fold change
[2]; [9]
  Z.LYZ.S: −1.563
  SSMD.LYZ.S: −1.087
[2]; [10]
  Z.LYZ.S: −2.225
  SSMD.LYZ.S: −1.784
[2]; [11]
  Z.LYZ.S: −2.687
  SSMD.LYZ.S: −1.815
[2]; [12]
  Z.LYZ.S: −2.641
  SSMD.LYZ.S: −1.694
[3]; Dose 0.08 uM
  Dose.FC.CTG: −0.016 log 2 fold change
[3]; Dose 0.08 uM, standard z score
  Z.CTG: −0.039
[3]; Dose 0.40 uM
  Dose.FC.CTG: −0.174 log 2 fold change
[3]; Dose 0.40 uM, standard z score
  Z.CTG: −0.415
[3]; Dose 2.00 uM
  Dose.FC.CTG: −0.502 log 2 fold change
[3]; Dose 2.00 uM, standard z score
  Z.CTG: −1.200
[3]; Dose 10.00 uM
  Dose.FC.CTG: −0.935 log 2 fold change
[3]; [4]
  Z.CTG: −2.233
[3]; [9]
  SSMD.CTG: −0.045
[3]; [10]
  SSMD.CTG: −0.433
[3]; [11]
  SSMD.CTG: −1.788
[3]; [12]
  SSMD.CTG: −2.304
